Test results reported in paper PMC6442119, “The antitumor activity of CYB-L10, a human topoisomerase IB catalytic inhibitor” (Journal of Enzyme Inhibition and Medicinal Chemistry, 2019).

How the values were obtained:
Test in all cases: NCI60 assay
Assay type in all cases: cell-based
[1] = tested on: A498; details: Homo sapiens; Renal cancer, A498, 48 h
Procedure: (§1) CYB-L10 was tested using the protocols by the NCI, which has been described previously. […] The overall antiproliferative potential is quantified as a mean-graph midpoint (MGM). […] It was selected and submitted to National Cancer Institute (NCI, USA) for a developmental therapeutics assay against the 60 clinical tumor cell lines representing nine tissue types (NCI60)[23–25]. The tumor cells were incubated with CYB-L10 for 48 h and stained with sulphorhodamine B dye. Cell growth inhibition (GI50) was calculated relative to the control without compound.

[2] = tested on: BT-549; details: Homo sapiens; Breast cancer, BT-549, 48 h
Procedure: as §1

[3] = tested on: CCRF-CEM; details: Homo sapiens, Leukemia, 48 h
Procedure: as §1

[4] = tested on: COLO 205; details: Homo sapiens; Colon cancer, COLO 205, 48 h
Procedure: as §1

[5] = tested on: HCT116; details: Homo sapiens, HCT-116, Colon cancer, HCT116, 48 h
Procedure: as §1

[6] = tested on: HOP-62; details: Homo sapiens; Non-small cell lung cancer, HOP-62, 48 h
Procedure: as §1

[7] = tested on: HS 578T; details: Homo sapiens, Breast cancer, 48 h
Procedure: as §1

[8] = tested on: HT29; details: Homo sapiens, HT-29; Colon cancer, HT29, 48 h
Procedure: as §1

[9] = tested on: K-562; details: Homo sapiens, K562; Leukemia, K-562, 48 h
Procedure: as §1

[10] = tested on: KM12; details: Homo sapiens; Colon cancer, KM12, 48 h
Procedure: as §1

[11] = tested on: M14; details: Homo sapiens; Melanoma, M14, 48 h
Procedure: as §1

[12] = tested on: MOLT-4; details: Homo sapiens; Leukemia, MOLT-4, 48 h
Procedure: as §1

[13] = tested on: NCI-H23; details: Homo sapiens; Non-small cell lung cancer, NCI-H23, 48 h
Procedure: as §1

[14] = tested on: NCI/ADR-RES; details: Homo sapiens, Ovarian cancer, 48 h
Procedure: as §1

[15] = tested on: OVCAR-4; details: Homo sapiens; Ovarian cancer, OVCAR-4, 48 h
Procedure: as §1

[16] = tested on: PC-3; details: Homo sapiens; Prostate cancer, PC-3, 48 h
Procedure: as §1

[17] = tested on: RPMI-8226; details: Homo sapiens; Leukemia, RPMI-8226, 48 h
Procedure: as §1

[18] = tested on: RXF 393; details: Homo sapiens; Renal cancer, RXF 393, 48 h
Procedure: as §1

[19] = tested on: SF-295; details: Homo sapiens; CNS cancer, SF-295, 48 h
Procedure: as §1

[20] = tested on: SK-MEL-5; details: Homo sapiens; Melanoma, SK-MEL-5, 48 h
Procedure: as §1

[21] = tested on: SK-OV-3; details: Homo sapiens; Ovarian cancer, SK-OV-3, 48 h
Procedure: as §1

[22] = tested on: SN 12C; details: Homo sapiens, SN12C, Renal cancer, 48 h
Procedure: as §1

[23] = tested on: SNB-75; details: Homo sapiens; CNS cancer, SNB-75, 48 h
Procedure: as §1

[24] = tested on: T-47D; details: Homo sapiens, T47D, Breast cancer, 48 h
Procedure: as §1

[25] = tested on: TK-10; details: Homo sapiens; Renal cancer, TK-10, 48 h
Procedure: as §1

[26] = tested on: UACC-257; details: Homo sapiens; Melanoma, UACC-257, 48 h
Procedure: as §1

O=C1c2cccnc2C(=O)c2c1c(C(=O)OCCN1CCOCC1)c1ccccn21 [CYB-L10] was tested. Which GI50 [1] did it give?
Its GI50 is 34.3 nM.

And the GI50 [2]?
The GI50 was 55.8 nM.

What about the GI50 [3] of the same compound?
The GI50 was 379 nM.

And the GI50 [4]?
The GI50 was 137 nM.

What about the GI50 [5] of the same compound?
The GI50 was 41.7 nM.

And the GI50 [6]?
Its GI50 is < 10 nM.

What about the GI50 [7] of the same compound?
Its GI50 is 36.9 nM.

And the GI50 [8]?
The GI50 was 580 nM.

And the GI50 [9]?
Its GI50 is 28.2 nM.

What about the GI50 [10] of the same compound?
Its GI50 is 168 nM.

What about the GI50 [11] of the same compound?
The GI50 was < 10 nM.

And the GI50 [12]?
Its GI50 is 217 nM.

What about the GI50 [13] of the same compound?
The GI50 was < 10 nM.

And the GI50 [14]?
Its GI50 is 36.8 nM.

What about the GI50 [15] of the same compound?
The GI50 was 1220 nM.

And the GI50 [16]?
The GI50 was 190 nM.

What about the GI50 [17] of the same compound?
The GI50 was 166 nM.

And the GI50 [18]?
Its GI50 is 35.1 nM.

And the GI50 [19]?
Its GI50 is 25.7 nM.

And the GI50 [20]?
The GI50 was 28.5 nM.

What about the GI50 [21] of the same compound?
The GI50 was < 10 nM.

And the GI50 [22]?
Its GI50 is < 10 nM.

And the GI50 [23]?
The GI50 was < 10 nM.

What about the GI50 [24] of the same compound?
Its GI50 is 961 nM.

And the GI50 [25]?
Its GI50 is 361 nM.

And the GI50 [26]?
The GI50 was 54.6 nM.
